Data on ten compounds can be found in PubChem BioAssay (NCI).

Test in all cases: inhibition of tumour cell growth, NCI panel, 48 h
In test [1] the test system is CCRF-CEM leukemia.
The subject of test [2] is NCI-H522 lung.
Test [3] deals with HOP-62 NSCLC.
In test [4] the test system is IGROV1 ovarian.
For test [5], the system named is M14 melanoma.
Test [6] has as its system SR leukemia.
Test [7] concerns SK-MEL-5 melanoma.
Test [8] has as its system MOLT-4 leukemia.
Test [9] relates to OVCAR-4 ovarian.
Test [10] deals with SK-MEL-28 melanoma.

Molecules are shown by their SMILES. Values joined by “and” are separate entries in the source; they are usually repeats but may differ in a detail not shown here. Equal values may be shown once.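 A five-concentration, 48-hour dose response in 96-well plates underlies each endpoint, interpolated linearly between surrounding concentrations. The concentration for 50% growth inhibition is given as GI50. The concentration for full growth arrest is given as TGI.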

With `C[C@]12CC[C@@H]3c4ccc(O)cc4CC[C@H]3[C@@H]1CC[C@@H]2NS(=O)(=O)c1ccc(-c2ccccc2)cc1`, the GI50 in test [1] was 3.34 µM; in [2], 4.26 µM; in test [3], 10.5 µM; in test [4], 6.66 µM; in test [5], 3.46 µM; in test [6], 4.1 µM. Also, the GI50 in test [7] was 1.71 µM; in [8] it was 3.47 µM; in test [9], 2.43 µM; in [10] it was 5.52 µM. For the same compound, the TGI in [1] was more than 100 µM; in test [2], 27.2 µM; in test [3], more than 100 µM; in test [4], more than 100 µM; in test [5], 12.9 µM; in [6], 66.4 µM. The TGI is 3.26 µM in test [7], more than 100 µM in test [8], 19 µM in [9] and 54.6 µM in test [10].

With `COc1cc2c(cc1OC)[C@H]1C(=O)c3cc4c(cc3[C@H]1N(C)C2=O)OCO4`, the TGI in test [1] is 17 µM; in [2], more than 75 µM; in test [3], more than 79.2 µM; in test [4], more than 100 µM; in test [5], more than 76.6 µM; in test [6] it was more than 100 µM. Also, the TGI in test [7] is more than 48.8 µM; in [8], 5.7 µM; in test [9] it was more than 100 µM; in test [10], more than 100 µM.

For the compound `COc1cc(C2c3cc4c(cc3[C@@H](Nc3cccc(O)c3)C3COC(=O)[C@H]23)OCO4)cc(OC)c1O` (some centres undefined), the GI50 in test [1] is 0.237 µM; in test [2], 0.571 µM; in test [3] it was 0.459 µM; in test [5], 0.991 µM; in test [6] it was 0.0674 µM; in test [7], 0.526 µM. Moreover, the GI50 in [8] is 0.1 µM; in test [10], 0.746 µM. The TGI in [1] was 0.973 µM and 7.66 µM; in test [2], 5.51 µM; in test [3], 4.24 µM; in [4], 30.4 µM; in [5], 14.1 µM; in test [6], 0.816 µM and 4.6 µM. Moreover, the TGI in test [7] came out at 6.45 µM; in test [8] it was 0.911 µM; in [9], 37.6 µM; in test [10], 20.7 µM.

`O=c1[nH]c(-c2ccccn2)nc2sc3c(c12)CCCCCC3`: the GI50 in test [1] was 0.905 µM; in [2], more than 100 µM; in test [3], 6.24 µM; in test [4], 3.98 µM; in test [5], 4.09 µM; in test [6], 0.864 µM. The GI50 was 2.92 µM in test [7], 2.41 µM in test [8], 5.88 µM in [9] and 6.01 µM in test [10]. Also, the TGI in [1], in [2], in test [3], in [4], in test [5] and in [6] was more than 100 µM throughout. Moreover, the TGI in test [7], in test [8], in test [9] and in test [10] was more than 100 µM in each case.

Turning to `O=C1c2ccccc2C(=O)c2c1ccc1c3ccccc3n(Cc3ccccc3)c21`, the TGI in test [1], in test [2], in [3], in test [4], in test [5] and in test [6] was more than 100 µM throughout. The TGI in test [7], in test [8] and in test [9] was more than 100 µM throughout.

Take `Cc1cc(N)c2ccccc2[n+]1CCCCCCCCCC[n+]1c(C)cc(N)c2ccccc21`: the GI50 was 0.635 µM and 1.3 µM in [1]; 1.38 µM in [2]; 0.201 µM in test [3]; 0.538 µM and 2.17 µM in [4]; 0.584 µM in test [5]; 0.151 µM and 1.07 µM in [6]. Besides, the GI50 in test [7] is 0.0679 µM and 0.367 µM; in test [8], 0.549 µM and 1.41 µM; in [10] it was 0.277 µM and 1.18 µM. For the same compound, the TGI is 3.53 µM and 16.2 µM and 6.15 µM in test [1]; 4.01 µM and 4.43 µM in test [2]; 2.8 µM and 9.51 µM in test [3]; 3.25 µM and 18.5 µM and 7.33 µM in [5]; 0.656 µM and 3.95 µM and 4.37 µM in test [6]; 1.38 µM and 3.23 µM and 4.08 µM in [8]. In test [10], the TGI is 1.33 µM and 5.09 µM and 3.28 µM.

Turning to `N#CC(=C=[N-])[n+]1ccc(Cl)cc1`, the TGI in test [1] was 56 µM; in [2] it was 9.55 µM; in [3], 83 µM; in test [4], 36.4 µM; in [5], 31.1 µM; in test [6], 62.2 µM. Moreover, the TGI in [7] was 29.7 µM; in [8] it was more than 100 µM; in [9], 39.8 µM.

As for `CCOC(=O)C1=C(c2ccccc2)N(Cc2ccccc2)C2(O)C=CC(=O)C3C(=O)N(c4ccccc4)C(=O)C132` (centres undefined), the GI50 was 1.53 µM in test [1]; 2.67 µM in [3]; 1.92 µM in [5]; 1.17 µM in test [6]; 1.49 µM in [7]; 1.89 µM in test [8]. In addition, the GI50 in [9] was 2.94 µM; in test [10], 1.73 µM. The TGI came out at 7.03 µM in test [1]; 6.56 µM in test [3]; 4.04 µM in [5]; 4.13 µM in test [6]; 2.93 µM in test [7]; 5.01 µM in [8]. Besides, the TGI in [9] was 10.8 µM; in test [10], 3.85 µM.

`O=C1/C(=C/c2ccccc2)CN(C(=O)OCC(Cl)(Cl)Cl)C/C1=C\c1ccccc1`: the TGI in test [1] was 13.5 µM; in [4] it was 15.4 µM; in [5] it was 4.65 µM; in test [6], 6.23 µM; in test [7], 2.95 µM; in test [8], 10.3 µM. The same compound displayed a TGI in test [10] of 3.25 µM.

Turning to `CCC1NCC(=O)c2c1[nH]c1ccccc21` (centres undefined), the TGI in test [1], in test [2], in test [4], in test [5], in test [6] and in [7] was more than 100 µM each time. Moreover, the TGI in test [8], in [9] and in [10] was more than 100 µM throughout.
